Measured values taken from patent publication US20260167926A1, “SPINAL CORD INJURY TREATMENT NEUROSPHERE” (KEIO UNIVERSITY, priority 2019, published 2026).

Assays:
[1] = system: human iPS cell-derived neurospheres; experiment: Neurite length after differentiation of neurospheres into neurons; type: cell-based; conditions: neurospheres cultured one day with inhibitor, then differentiated; 7th and 14th day; 201B7 and 414C2; compared to the untreated group
Protocol: Specifically, in an in vitro experimental system, human iPS cell-derived neurospheres were treated with a γ-secretase inhibitor and a p38 MAPK inhibitor to induce differentiation into neurons. Subsequently, the length of the neurite was measured and evaluated.
DAPT was used as the γ-secretase inhibitor. In addition, SB203580 (CAS Number: 152121-47-6) was used as the p38 MAPK inhibitor. First, human iPS cell-derived neurospheres were cultured for one day in the presence of the γ-secretase inhibitor alone, in the presence of the p38 MAPK inhibitor alone, or in the presence of the γ-secretase inhibitor and the p38 MAPK inhibitor.
Subsequently, various cells were seeded on a poly-L-ornithine/fibronectin-coated 48-well chamber slide (manufactured by Costar Corporation) at a cell density of 1×10^5 cells/mL, and the cells were cultured in a growth factor-free medium at in a 95% air environment at 37° C. and 5% CO2 for 14 days and were differentiated into neurons. Subsequently, on the 7th day and the 14th day after the initiation of differentiation induction, the cells were fixed with 4% paraformaldehyde in 0.1 M PBS, and the length of the neurite was measured.
FIG. 13A is a graph showing the results for neurons derived from 201B7 cells (n=5). In addition, FIG. 13B is a graph showing the results for neurons derived from 414C2 cells (n=5).

p38 MAPK [2] = experiment: Immunostaining of p38 MAPK, phosphorylated p38 MAPK and βIII-tubulin in differentiated cells; type: cell-based, human; conditions: 14 days after initiation of differentiation induction
Protocol: Immunostaining of p38 MAPK, phosphorylated p38 MAPK, and βIII-tubulin was performed using cells obtained 14 days after the initiation of differentiation induction. In addition, Hoechst 33342 (CAS Number: 23491-52-3) was used to stain the cell nuclei.
FIG. 14A and FIG. 14B are representative microscopic images showing the results of immunostaining of the cells in the GSI (+) group. In FIG. 14A and FIG. 14B, “Pp38” indicates phosphorylated p38 MAPK, and “Merge” indicates the results of superimposing microscopic images. The scale bar is 20μm.

p38 MAPK [3] = experiment: Immunostaining of phosphorylated p38 MAPK in neurons derived from 201B7 neurospheres; type: cell-based, human; conditions: 201B7 neurospheres cultured one day at final concentration of 10 μM, differentiated 14 days
Protocol: Phosphorylation of p38 MAPK in human iPS cell-derived neurospheres treated with a γ-secretase inhibitor was examined.
Specifically, neurospheres derived from 201B7 cells, which are cells of a human iPS cell strain, were cultured for one day in the presence of a secretase inhibitor at a final concentration of 10 μM. Subsequently, the neurospheres were cultured in a growth factor-free medium in a 95% air environment at 37° C. and 5% CO2 for 14 days and were differentiated into nerurons. Subsequently, on the 14th day after the initiation of differentiation induction, the cells were fixed with 4% paraformaldehyde in 0.1 M PBS and observed. DAPT was used as the γ-secretase inhibitor. Immunostaining of phosphorylated p38 MAPK and βIII-tubulin was performed. In addition, Hoechst 33342 (CAS Number: 23491-52-3) was used to stain the cell nuclei.
FIG. 26 is representative microscopic images showing the results of immunostaining. In FIG. 26, “Pp38” represents phosphorylated p38 MAPK, and “Merge” indicates the results of superimposing microscopic images. The scale bar is 20 μm.

Compound	neurite outgrowth (length of the neurite) [1]	localization of p38-positive region relative to βIII-tubulin-positive neurons (p38 MAPK [2])	localization of phosphorylated p38-positive region (p38 MAPK [2])	phosphorylation of p38 MAPK in neurons derived from the neurospheres (p38 MAPK [3])
C[S+]([O-])c1ccc(-c2nc(-c3ccncc3)c(-c3ccc(F)cc3)[nH]2)cc1 (centres unmarked) [p38 MAPK inhibitor, SB203580]	significantly decreased	–	–	–
C[C@H](NC(=O)Cc1cc(F)cc(F)c1)C(=O)N[C@H](C(=O)OC(C)(C)C)c1ccccc1 [γ-secretase inhibitor, DAPT]	significantly large	co-localized	in the nucleus	enhanced
